Patent EP0339504A2, “Human immunodeficiency virus (HIV) env-coded peptide capable of eliciting HIV-inhibiting antibodies in mammals” (priority 1988, dated 1989)

How the values were obtained:
[1] = tested on: CEM cells chronically infected with HIV-1 IIIB; assay: Cell fusion assay with anti-peptide sera (giant cell count); format: cell-based; conditions: 1:10 serum dilution, control sera 50,65
Method: Briefly, 5000 CEM cells chronically infected with HIV-1 IIIB or HIV-1 RF were mixed with 75,000 Molt 4 cells in a volume of 100 µl in a 96 well half-area plate. Final dilution of sera in the assay was 1 to 20. Twenty-four hours later giant cells were visually enumerated at a 40x magnification.

[2] = tested on: antibodies from human HIV-1 seropositive serum samples; assay: ELISA detection of binding of human antibodies to immobilized synthetic peptides; conditions: wells blocked with diluent 1 hour before use
Method: Synthetic peptides were immobilized directly on Immulon®-II microtiter plates using glutaraldehyde. The plates were activated with 2% glutaraldehyde for 2 hrs at room temperature or 0.1% glutaraldehyde for 30 min and rinsed with deionized water. Two conditions of glutaraldehyde treatment were used routinely; the 2% glutaraldehyde was used to ensure adequate binding of the peptide to the plate and the 0.1% glutaraldehyde to avoid alteration of the binding sites. Peptide solutions of 100 µl containing 10 µg/ml in 60 mM bicarbonate buffer, pH 9.6, were added per well and incubated overnight at 4°C. The plates were washed and blocked with PBST (phosphate buffered saline + 0.05% Tween® 10) for 1 hr at 37°C and stored dry at 4°C.
This procedure was used to assure immobilization of the peptide to the microtiter plate. The peptide-HSA conjugate was immobilized on the microtiter plate well using the procedure above, except that glutaraldehyde was not included in the reaction.
Immediately before use, where indicated, the plates were blocked again with 100 µl of diluent (PBST + 5% bovine serum albumin + 20% heat inactivated normal goat serum + 0.1% sodium azide + 0.05% thimerosal) for 30 to 60 min at 37°C. […] The optical density or absorbance of the reaction was determined using a microtiter plate reader. […]

HIV-1 IIIB = assay: HIV neutralization assay with anti-peptide sera (p24 antigen in Molt 4 culture supernatant); format: cell-based; conditions: Molt 4 cells, day six
Method: Approximately 500 TCID₅₀ infectious units of HIV-1 IIIB or HIV-1 RF in 25 µl were mixed and incubated with serum dilutions (25 µl) for 30 min at 37°C. Molt 4 cells (4x10⁴) were added in a volume of 100 µl and incubation continued for six days at 37°C. The final dilution of the serum sample was 1 to 20. The total volume of each culture was doubled daily by addition of fresh medium (RPMI + 20% fetal calf serum). On day six, 100 µl samples were taken from the supernatant and tested for the level of viral gag-coded p24 antigen using an antigen capture assay (Du Pont, Wilmington, DE).

guinea pigs = assay: Immunization of guinea pigs with peptide-carrier protein conjugate; anti-peptide antibodies by ELISA; format: in vivo, guinea pig
Method: Peptides were conjugated to either ovalbumin or keyhole limpet hemocyanin prior to immunization. For ELISA studies, human serum albumin (HSA) was used as the carrier protein. Carrier protein (2 mg/ml) was activated with 0.5% glutaraldehyde for 30 to 60 min at room temperature, then an equal volume of the peptide solution (2 mg/ml in dimethylsulfoxide) was added. The reaction took place overnight at 4°C, following which the reaction mixture was dialyzed overnight against deionized water or 0.1 M glycine, pH 7.0 in the case of human serum albumin.
Guinea pigs and rabbits were immunized following standard immunization protocols. Guinea pigs and rabbits were immunized initially with 100 to 200 µg of the peptide-carrier protein conjugate in complete Freund's adjuvant, and boosted using half the amount of peptide-carrier protein conjugate in incomplete Freund's adjuvant every two weeks thereafter. Serum samples were obtained at every other boost.
All of the peptides listed in Table 1 were conjugated to a carrier protein (either keyhole limpet hemocyanin or ovalbumin) and each peptide-carrier protein conjugate was used to immunize two guinea pigs. Guinea pigs were selected as a convenient test animal system. The resultant guinea pig antiserum samples were monitored for anti-peptide reactivity using ELISA procedures. […] A time point of six months was selected for testing the antiviral (i.e, HIV neutralizing and cell fusion-blocking) characteristics of the guinea pig antisera.
Although different levels of antibodies were produced, there was no case where only one animal from the pair produced antibodies.

peptide 1-80: aa number 418 to 432 of HIV-1 IIIB env-coded protein (CRIKQIINMWQKVGK; Surface protein gp120; UniProt P04578 418-432, looked up, fragment)
FUSION ASSAY (number of giant cells formed) ([1]; guinea pig antiserum, 6 month bleed, two counts per cell separated by a comma (no decimal)): 63,66 | FUSION ASSAY (number of giant cells formed) ([1]; rows marked + : guinea pig antiserum, 2-5 month bleed, two counts separated by a comma): 54,53 | HIV SEROPOSITIVE SERA Number of Peptide ELISA Positive Sera of 37 Tested ([2]; positive = ELISA absorbance greater than 0.2): 14 | HIV SEROPOSITIVE SERA Positive Sera Average Absorbance ± SD ([2]; positive = absorbance greater than 0.2): 0.34 ± 0.24 | NEUTRALIZATION ACTIVITY (quantity of p24 present in the supernatant) (HIV-1 IIIB; guinea pig antiserum, 6 month bleed): 800 ng/mL | NEUTRALIZATION ACTIVITY (quantity of p24 present in the supernatant) (HIV-1 IIIB; rows marked + : guinea pig antiserum, 2-5 month bleed): >800 ng/mL | LIMITING DILUTION (guinea pigs; anti-peptide ELISA of guinea pig antiserum, 6 month bleed, dilution at which an absorbance of 0.1 would be obtained, one row per animal): 30 | level of anti-peptide antibodies elicited (in words) (guinea pigs; by 6 months following the first immunization): elicited very low levels of anti-peptide antibodies | LIMITING DILUTION (guinea pigs; rows marked + : guinea pig antiserum, 2-5 month bleed, dilution giving absorbance 0.1): < 20
